Laboratory results as given in patent publication US20250122193A1, “NOVEL PYRIDOCARBAZOLIUM COMPOUNDS AND MEDICAL USES THEREOF” (MyCural Therapeutics, priority 2021, published 2025).

Key:
[1] = system: MDA-MB-231; assay: MDA-MB-231 cells in cell culture; format: cell-based; details: Homo sapiens
Method: We next studied the effects of MYCMI-7 in a xenograft model of the human basal-like breast cancer cell line MDA-MB-231. The cells were highly sensitive to MYCMI-7 treatment in cell culture (data not shown), with a GI50 around 1 μM.

[2] = system: SKN-DZ neuroblastoma cells with MYCN-amplification; assay: 3D colony formation in agarose, SK-N-DZ; format: cell-based; details: 3D cultures, 2 weeks
Method: C) 3D cultures of SKN-DZ neuroblastoma cells with MYCN-amplification exposed to indicated concentrations of MYCMI-7 for 2 weeks. Colony formation in agarose was detected by MTT staining and quantified.
For anchorage-independent growth assay, cells were suspended in 250 μl 0.35% SeaPlaque agarose (InVitro) and seeded into 24 well plates which had previously been coated with a bottom layer of 250 μl 0.7% agarose. After 16 days, the colonies were stained with 100 μg/ml MTT (Sigma) overnight and colonies were counted.

[3] = biological target: MYC:MAX interaction (Homo sapiens, UniProt P01106); assay: co-immunoprecipitation of endogenous MYC and MAX; format: cell-based; details: 5 μM, MCF7 cells
MYC:MAX interaction, sequence (P01106 16-454): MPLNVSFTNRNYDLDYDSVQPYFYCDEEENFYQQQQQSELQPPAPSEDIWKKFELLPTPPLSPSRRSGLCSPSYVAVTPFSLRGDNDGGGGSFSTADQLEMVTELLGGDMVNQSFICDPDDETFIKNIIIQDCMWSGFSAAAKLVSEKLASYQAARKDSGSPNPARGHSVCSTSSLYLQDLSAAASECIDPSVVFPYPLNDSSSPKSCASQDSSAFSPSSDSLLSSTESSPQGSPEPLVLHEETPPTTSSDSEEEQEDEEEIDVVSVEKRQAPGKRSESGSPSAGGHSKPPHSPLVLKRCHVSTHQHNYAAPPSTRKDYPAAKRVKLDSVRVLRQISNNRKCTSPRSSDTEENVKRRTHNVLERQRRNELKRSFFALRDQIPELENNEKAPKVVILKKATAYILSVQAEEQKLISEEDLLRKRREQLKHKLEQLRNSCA
Method: FIG. 1: MYCMI-7 (Compound Example 1) inhibits the MYC:MAX interaction in cells, bind MYC in vitro, and blocks MYC function. A) Molecular structure of MYCMI-7. B-E) split Gaussia luciferase (GLuc) assay. MYC or MYCN and MAX Gluc constructs were co-transfected into HeLa cells together with a firefly luciferase vector. 24 hours post transfection cells were treated with compounds, and after another 17-24 hours cells were harvested and both GLuc and firefly luciferase activities were measured. The mean of three different experiments is shown. Treatment with: B) 5 μM of MYCMI-7, 64 μM 10058-F4 or 5 μM JQ1, respectively, C) 6.5 μM MYCMI-7 on cells expressing MYC:MAX GLuc vs. GCN4:GCN4 GLuc, D) 5 μM MYCMI-7 and 5 μM ellipticine. E) 5 μM MYCMI-7 for various time points. F) in situ proximity ligation assay (isPLA). […] G) Quantification of isPLA dots. […] J) MYC target gene ODC1 expression after treatment with 5 μM MYCMI-7, quantified by qPCR. […] L) Recombinant MYC bHLHZip protein domain immobilized onto a CM5 chip was subjected to various concentrations of MYCMI-7 and the complex of MYCbHLHZip-MYCMI-7 was measured as response units by SPR. […]
For western blot equal amounts of proteins ([…]) were separated on a 4-12% SDS-PAGE gel. Proteins were transferred to Immobilion-P membrane (Millipore) and detected by immunostaining and chemoluminescence (Immobilion western HRP substrate; Millipore). […]

[4] = system: MYC/BCL-XL-driven acute myeloblastic leukemia
Method: A) Schematic plan of the experiment B) Flow cytometry analysis of GFP^+ leukemic blasts in bone marrow on day 11 (n=5), day 15 (n=5), and at the end point (n=9) after daily i.p. injection of 12.5 mg/kg MYCMI-7, compared with vehicle (n=3) mice. C). H&E and MYC immunohistochemistry (IHC) stainings of spleen sections at the endpoint. Images were taken at 10× magnification. D) quantification of MYC IHC stainings of spleen sections at the endpoint. E) Western blot analysis of cleaved caspase 3 and H3K9me3 expression in spleens at endpoint after treating mice with MYCMI-7 or vehicle (3 mice from each condition). Actin was used as loading control. At the end points, the last injection was done 3 hrs before sacrifice.
3×10^5 cells were injected into each recipient C57BL mouse after irradiation (600 rad). AML-like leukemia initiation was confirmed via flow cytometry and Giemsa staining, at day 8 after transplantation. MYCMI-7 were then administrated intraperitoneally daily at a dose of 12.5 mg/kg. Liver, spleen and bone marrow were extracted at day 11, 15 and endpoint for measurement. In addition, body weight of mouse in each group was also collected every 4th day until the endpoint of the experiment.
We next investigated potential anti-tumor effects of MYCMI-7 in vivo. […] The mice were then sacrificed according to scheme illustrated in FIG. 7A.

[5] = endpoint, compared with vehicle

CCN(CC)CC[n+]1ccc2c(C)c3[nH]c4ccccc4c3c(C)c2c1 [MYCMI-7, 2-(5,11-Dimethyl-6H-25-pyrido[4,3-b]carbazol-2-yl)-N,N-diethylethanamine bromide]
GI50 [1]: ~1000 nM
GI50 [2]: nanomolar range
MYC:MAX interaction by co-IP ([3]; 1 hour after treatment): decreased
MYC:MAX interaction by co-IP ([3]; 4 hours): reduced drastically
body weight ([4]; 12.5 mg/kg daily i.p.): retained their weight
mouse survival ([4]; 12.5 mg/kg daily i.p.): no significant difference
side effects ([4]; 12.5 mg/kg daily i.p.): no signs of severe side effects
GFP positive leukemic cells in bone marrow ([4]; 12.5 mg/kg daily i.p., day 15): undetectable
leukemic cells in bone marrow ([4]; 12.5 mg/kg daily i.p., end point (20+/−4 days)): around 10%
spleen structure ([4]; endpoint, compared to vehicle): retained a more normal spleen structure
MYC expression in leukemic cells (IHC) [4, 5]: strongly reduced
cleaved caspase 3 and H3K9me3 in leukemic spleens (western blot) [4, 5]: increased expression
